Assay results published in patent publication US10844062B2, “Pyridine derivative inhibiting RAF kinase and vascular endothelial growth factor receptor, method for preparing same, pharmaceutical composition containing same, and use thereof” (SAMJIN PHARMACEUTICAL CO., LTD., priority 2016, dated 2020).
Read-outs that look alike come from different tables or passages of the source.

Assays:
[1] = system: LS513 human colorectal cancer cell line xenograft; assay: Antitumor effect on human colorectal cancer LS513 cell line xenograft; assay type: in vivo, Balb/c nu/nu nude mice; conditions: oral, twice a day, 14 days
Text: In this experiment, 5 to 6-week-old female Balb/c nu/nu nude mice (weighed 18 to 20 g) were used. The mice were provided from Nara Biotech Co., Ltd. During the experiment, all the animals were housed on a mouse constant temperature/constant humidity shelf (Individually Ventilated Cages System, LAB & BIO).
Each cage (37.2 cm length×19.2 cm width×13.1 cm height) was sterilized with a sterilizer, and eight mice were received in each cage. The mice were maintained in a hygienic environment controlled to a temperature of 20 to 24° C. and a humidity of 40 to 70% with a 12-hr light/12-hr dark cycle. The mice were allowed to access sterilized feed and drinking water ad libitum. The care and treatment of these animals were carried out according to the Laboratory Animal Care Guidelines of Samjin Pharmaceutical Co., Ltd.
The mice were acclimated to the housing facility for 1 week, and then 0.1 mL of a cell suspension containing 1×10^7 cells was injected subcutaneously into the right flank of each mouse. After cell transplantation, the volume of the formed tumor was measured, and mice with formed tumors having a volume of 150 mm^3 or more were randomly divided into groups (each consisting of 7 to 8 animals) for treatment with the test compounds and a control. […] Administration of the drugs was continued for 14 days. […] At 3-day intervals from the starting day of the administration, the long axis and short axis of the tumor were measured with digital vernier calipers, and the tumor volume was calculated using the following equation and recorded: Tumor volume (TV)=Long axis×short axis^2/2.
Tumor growth inhibition for absolute tumor volume was calculated using the following equation. In the following equation, V0 is the tumor volume on the first day of drug administration (day 0), and Vt is the tumor volume after last drug administration.

[2] = target: B-Raf (Homo sapiens (Human), UniProt P15056); assay: Raf kinase inhibitory activity (Raf/MEK1/MAPK2 cascade, MBP phosphorylation, 32P); assay type: biochemical
Experimental: (§1) In order to examine the inhibitory activities of the compounds of the present invention against Raf kinases (B-Raf, C-Raf, B-Raf^V600E), the following experiment was performed.
(§2) (1) Consecutive Signal Transduction Reaction
(§3) To a centrifugation tube, 20 μl of a dilution solvent (20 mM MOPS, pH 7.2, 25 mM (3-glycerol phosphate, 5 mM EGTA, 1 mM sodium orthovanadate, 1 mM dithiothreitol) and 20 μl of a Mg/ATP mixture (500 μM ATP and 75 mM magnesium chloride) were added. Then, each of the derivative compounds of formula 1 was added. As a control, 1 ng of activated raf, 0.4 ng of inactivated MEK1 and 1 μg of inactivated MAPK2 were added without adding Example compounds. The solutions in the tube were concentrated at the bottom of the tube by centrifugation, and then allowed to react at 30° C. for 30 minutes, and 4 μl of the mixture solution was taken and used in the next experimental step.
(§4) (2) Phosphorylation of Substrate Protein MBP by MAPK2
(§5) To 4 μl of the mixture solution taken in (1), 10 μl of a dilution solvent, 20 μg of MBP as a substrate, and 10 μl of diluted [γ-32P]ATP (1 μCi/μL) were added. The solutions in the tube were concentrated at the bottom of the tube by centrifugation, and then allowed to react at 30° C. for 30 minutes. 25 μl of the reaction solution was carefully placed on the center of 2 cm×2 cm P81 filter paper for 30 seconds. Next, the filter paper was washed three times with 0.75% phosphoric acid solution for 10 minutes each time and washed once with acetone for 5 minutes. Next, the filter paper was transferred into a scintillation vial, and 5 ml of a scintillation cocktail was added thereto. Raf activity inhibition rate (IC50) was measured by reading the radioactivity with a scintillation counter in comparison with the control.

[3] = target: C-Raf (Homo sapiens (Human), UniProt P04049); assay: as above; assay type: biochemical
Experimental: as §1, §2, §3, §4, §5

[4] = target: B-Raf V600E (Homo sapiens (Human), UniProt P15056, V600E); assay: as above; assay type: biochemical
Experimental: as §1, §2, §3, §4, §5

[5] = system: LS513 KRAS G12V (colon); assay: MTT assay; assay type: cell-based; conditions: Homo sapiens, LS-513, 72 h, 3 days incubation, read-out: MTT assay IC50 KRAS mutant (Colon) LS513 KRAS G12V
Procedure, shortened: (§6)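 Cells were seeded at line-dependent density and stabilised overnight at 37 °C, then exposed to compounds for 3 days at 37 °C. MTT was then added for 2 h and the formazan dissolved in DMSO.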

[6] = system: HUVEC (VEGF); assay: MTT assay; assay type: cell-based; conditions: Homo sapiens, 72 h, Table 5, 3 days incubation
Procedure, shortened: as §6

[7] = system: SW620 KRAS G12V (colon); assay: MTT assay; assay type: cell-based; conditions: Homo sapiens, SW-620, 72 h; Table 5; 3 days incubation; read-out: MTT assay IC50 KRAS mutant (Colon) SW620 KRAS G12V
Procedure, shortened: as §6

[8] = system: HCT-116 KRAS G13D (colon); assay: MTT assay; assay type: cell-based; conditions: Homo sapiens, HCT-116, 72 h; Table 5; 3 days incubation; read-out: MTT assay IC50 KRAS mutant (Colon) HCT-116 KRAS G13D
Procedure, shortened: as §6

[9] = system: WiDR BRAF V600E (colon); assay: MTT assay; assay type: cell-based; conditions: Homo sapiens, 72 h, Table 5, 3 days incubation, read-out: MTT assay IC50 BRAF mutant (Colon) WiDR BRAF V600E
Procedure, shortened: as §6

[10] = system: A-375P BRAF V600E (melanoma); assay: MTT assay; assay type: cell-based; conditions: A375P, 72 h; Table 5; 3 days incubation
Procedure, shortened: as §6

[11] = system: SK-MEL2 NRAS Q61R (melanoma); assay: MTT assay; assay type: cell-based; conditions: Homo sapiens, SK-MEL-2, 72 h; Table 5; 3 days incubation
Procedure, shortened: as §6

[12] = target: VEGFR-2 tyrosine kinase (KDR) (Homo sapiens (Human), UniProt P35968); assay: VEGFR-2 tyrosine kinase inhibitory activity (ADP-Glo kinase assay); assay type: biochemical; conditions: KDR 50 ng
Chain of VEGFR-2 tyrosine kinase (KDR) (P35968 20-1356): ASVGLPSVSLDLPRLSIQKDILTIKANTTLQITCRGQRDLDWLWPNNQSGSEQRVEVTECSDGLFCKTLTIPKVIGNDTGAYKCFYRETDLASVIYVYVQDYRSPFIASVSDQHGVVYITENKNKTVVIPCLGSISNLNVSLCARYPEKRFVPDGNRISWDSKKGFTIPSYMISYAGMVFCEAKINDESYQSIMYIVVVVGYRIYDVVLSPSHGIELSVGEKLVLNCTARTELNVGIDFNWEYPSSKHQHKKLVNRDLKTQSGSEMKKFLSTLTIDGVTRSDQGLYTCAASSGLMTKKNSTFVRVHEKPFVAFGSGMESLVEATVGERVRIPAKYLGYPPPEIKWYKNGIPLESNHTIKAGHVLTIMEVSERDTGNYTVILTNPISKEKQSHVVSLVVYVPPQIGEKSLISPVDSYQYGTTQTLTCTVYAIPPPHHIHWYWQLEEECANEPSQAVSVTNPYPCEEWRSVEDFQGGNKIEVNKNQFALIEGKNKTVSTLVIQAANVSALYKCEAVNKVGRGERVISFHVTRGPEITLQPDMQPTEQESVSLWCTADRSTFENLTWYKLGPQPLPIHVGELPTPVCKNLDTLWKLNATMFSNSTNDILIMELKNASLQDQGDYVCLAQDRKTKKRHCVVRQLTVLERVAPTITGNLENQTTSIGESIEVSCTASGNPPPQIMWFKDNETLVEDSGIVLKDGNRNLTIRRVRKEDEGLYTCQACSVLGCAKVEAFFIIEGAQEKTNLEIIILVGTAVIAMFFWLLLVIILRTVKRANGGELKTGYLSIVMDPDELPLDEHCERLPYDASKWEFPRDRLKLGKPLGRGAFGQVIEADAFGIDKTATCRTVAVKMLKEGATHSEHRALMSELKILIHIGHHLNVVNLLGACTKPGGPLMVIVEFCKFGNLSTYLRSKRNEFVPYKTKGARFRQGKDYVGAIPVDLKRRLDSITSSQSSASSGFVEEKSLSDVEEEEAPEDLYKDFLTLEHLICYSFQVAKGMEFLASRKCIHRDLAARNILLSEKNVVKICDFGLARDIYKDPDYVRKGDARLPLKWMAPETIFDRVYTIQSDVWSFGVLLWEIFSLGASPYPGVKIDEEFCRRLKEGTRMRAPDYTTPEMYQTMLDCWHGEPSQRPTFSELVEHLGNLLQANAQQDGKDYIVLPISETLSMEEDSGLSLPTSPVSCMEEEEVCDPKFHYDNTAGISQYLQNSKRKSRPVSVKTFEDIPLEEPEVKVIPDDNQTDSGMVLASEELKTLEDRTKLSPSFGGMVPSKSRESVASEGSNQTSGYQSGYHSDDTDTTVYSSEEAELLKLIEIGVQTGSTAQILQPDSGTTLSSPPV
Experimental: The inhibitory activities of the compounds of the present invention against VEGFR-2 tyrosine kinase were analyzed using ADP-Glo™ kinase assay kit commercially available from Promega. In the principle of the analysis, kinase, a substrate and ATP are reacted with one another, and then ADP-Glo™ solution is added thereto. The ATP is removed while leaving the produced ADP, and the remaining ADP is converted to ATP by use of a kinase detection reagent, and the ATP is reacted with a luciferin substrate, and the emitted luminescence is measured.
Reaction time: 30 min (30° C.)/40 min/30 min;

Chain of B-Raf V600E (P15056 whole entry V600E): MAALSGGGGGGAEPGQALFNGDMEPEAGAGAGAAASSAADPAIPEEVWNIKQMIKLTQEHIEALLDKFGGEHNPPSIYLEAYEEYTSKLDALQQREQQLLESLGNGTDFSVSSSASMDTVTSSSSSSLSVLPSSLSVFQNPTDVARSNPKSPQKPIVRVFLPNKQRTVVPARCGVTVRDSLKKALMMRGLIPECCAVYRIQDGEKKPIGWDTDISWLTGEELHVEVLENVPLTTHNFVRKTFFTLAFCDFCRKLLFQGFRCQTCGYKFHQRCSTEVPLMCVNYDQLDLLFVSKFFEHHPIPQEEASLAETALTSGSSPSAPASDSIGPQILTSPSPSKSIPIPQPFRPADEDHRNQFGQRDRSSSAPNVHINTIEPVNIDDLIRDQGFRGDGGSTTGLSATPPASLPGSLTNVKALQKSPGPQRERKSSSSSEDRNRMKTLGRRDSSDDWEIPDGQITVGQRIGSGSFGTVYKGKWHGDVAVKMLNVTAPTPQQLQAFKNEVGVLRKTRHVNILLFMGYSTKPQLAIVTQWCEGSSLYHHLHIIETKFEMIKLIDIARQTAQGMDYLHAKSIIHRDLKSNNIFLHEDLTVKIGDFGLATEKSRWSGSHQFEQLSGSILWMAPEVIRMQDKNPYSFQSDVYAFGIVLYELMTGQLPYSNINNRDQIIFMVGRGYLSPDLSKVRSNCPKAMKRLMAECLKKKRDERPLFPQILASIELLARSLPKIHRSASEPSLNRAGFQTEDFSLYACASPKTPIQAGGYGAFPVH
Chain of B-Raf (P15056 whole entry): as the sequence (P15056 whole entry V600E) above, with E600V counted along it
Chain of C-Raf (P04049 whole entry): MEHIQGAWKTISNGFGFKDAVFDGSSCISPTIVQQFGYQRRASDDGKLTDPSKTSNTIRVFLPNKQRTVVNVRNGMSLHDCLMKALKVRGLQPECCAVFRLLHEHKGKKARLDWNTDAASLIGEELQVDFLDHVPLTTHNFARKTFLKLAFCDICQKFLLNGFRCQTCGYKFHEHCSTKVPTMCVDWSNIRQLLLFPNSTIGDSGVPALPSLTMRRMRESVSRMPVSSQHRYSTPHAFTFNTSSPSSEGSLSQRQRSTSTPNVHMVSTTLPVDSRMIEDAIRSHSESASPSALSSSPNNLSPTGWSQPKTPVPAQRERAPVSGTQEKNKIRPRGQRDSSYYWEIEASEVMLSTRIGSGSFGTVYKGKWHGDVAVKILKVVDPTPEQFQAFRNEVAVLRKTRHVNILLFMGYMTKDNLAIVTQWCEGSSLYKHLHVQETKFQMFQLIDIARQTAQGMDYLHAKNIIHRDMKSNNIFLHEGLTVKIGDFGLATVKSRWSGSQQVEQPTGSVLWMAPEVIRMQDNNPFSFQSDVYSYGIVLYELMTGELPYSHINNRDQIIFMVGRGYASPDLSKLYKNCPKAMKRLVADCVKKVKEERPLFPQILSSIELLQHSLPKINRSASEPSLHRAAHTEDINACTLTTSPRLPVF

SMILES | antitumor effect (tumor growth inhibition) compared to the control group ([1]; 30 mg/kg) | antitumor effect (tumor growth inhibition) compared to the control group ([1]; 60 mg/kg) | IC50 [2] | IC50 [3] | IC50 [4] | IC50 ([5]; Table 4) | IC50 ([5]; Table 5) | IC50 [6] | IC50 [7] | IC50 [8] | IC50 [9] | IC50 [10] | IC50 [11] | antitumor effect (tumor growth inhibition) compared to the vehicle control ([1]; 60 mg/kg or 30 mg/kg (dose not specified per compound)) | IC50 [12]
CC(C)(C#N)c1cccc(C(=O)Nc2cc(Nc3ncccc3-c3ncnc4[nH]cnc34)ccc2F)c1 [Example 21, N-(5-(3-(9H-purin-6-yl)pyridin-2-ylamino)-2-fluorophenyl)-3-(2-cyanopropan-2-yl)benzamide] | about 66.7% | 90.3% | 21 nM | 10 nM | 10 nM | 333 nM | 160 nM | 40 nM | 249 nM | 63 nM | 28 nM | 24 nM | 129 nM |  | 
CC(C)(C#N)c1cccc(C(=O)Nc2cccc(Nc3ncccc3-c3ncnc4[nH]cnc34)c2)c1 [Example 23, N-(3-(3-(9H-purin-6-yl)pyridin-2-ylamino)phenyl)-3-(2-cyanopropan-2-yl)benzamide] |  |  | 17 nM | 8 nM | 7 nM | 687 nM | 95 nM | 28 nM | 321 nM | 50 nM | 62 nM | 12 nM | 58 nM |  | 
O=C(Nc1cc(Nc2ncccc2-c2ncnc3[nH]cnc23)ccc1F)c1cccc(C(F)(F)F)c1 [Example 30, N-(5-(3-(9H-Purin-6-Yl)Pyridin-2-Ylamino)-2-Fluorophenyl)-3-(Trifluoromethyl)Benzamide] | 76.9% | 88.7% | 2.7 nM | 0.7 nM | 5.2 nM | 143 nM | 79 nM | 13 nM | 864 nM | 145 nM | 636 nM | 246 nM | 122 nM |  | 
O=C(Nc1cc(Nc2ncccc2-c2ncnc3[nH]cnc23)ccc1F)c1cc(F)cc(C(F)(F)F)c1 [Example 36, N-(5-(3-(9H-Purin-6-Yl)Pyridin-2-Ylamino)-2-Fluorophenyl)-3-Fluoro-5-(Trifluoromethyl)Benzamide] |  |  | 71 nM | 41 nM | 30 nM | 250 nM | 126 nM | 15 nM | 675 nM | 117 nM | 644 nM | 271 nM | 388 nM | 78.5% | 
COc1ccc(C(=O)Nc2ccc(F)c(Nc3ncccc3-c3ncnc4[nH]cnc34)c2F)cc1 [Example 53, N-(3-(3-(9H-Purin-6-Yl)Pyridin-2-Ylamino)-2,4-Difluorophenyl)-4-Methoxybenzamide] |  |  | 14 nM | 7 nM | 6 nM | > 10000 nM | 29 nM | 5.8 nM | 180 nM | 17 nM | 391 nM | 4 nM | 35 nM |  | 
Cc1ccc(NC(=O)c2cccc(C(F)(F)F)c2)cc1Nc1ncccc1-c1ncnc2[nH]cnc12 [Example 71, N-4-Methyl-5-[3-(9H-Purin-6-Yl)Pyridin-2-Ylamino)Phenyl-3-Trifluoromethylbenzamide] |  |  |  |  |  | 565 nM |  |  |  |  |  |  |  |  | 1600 nM
